Source: US6589961B2, “9-alkylamino-1-nitroacridine derivatives” (New York Medical College, priority 2000, dated 2003)
“And” between values parts separate entries of the source, which are not always exact repeats. Equal entries are not always repeated.

Experiments:
Type in all cases: in vivo
[1] = tested on: ascites adenocarcinoma Walker 256; test: Antitumor activity against ascites adenocarcinoma Walker 256 in rats (survival); details: Wistar rats; for Optimal dose: dose giving the highest antitumor activity, i.p. on days 3, 4 and 5 after tumor transplantation, five doses tested; for Antitumor activity against Walker256 (Survival) Test/Control: mean survival time of test group vs control at the optimal dose, i.p. on days 3, 4 and 5
Experimental: Tumors are transplanted weekly into Wistar rats by intraperitoneal inoculation of 10^6 tumor cells. In the experiments, Walker carcinosarcoma 256 cells are transplanted on day 0 in Wistar rats weighing 75-100 g. by i.p. injection of 10^6 cells per animal. Each acridine is administered i.p. on days 3, 4, and 5 after tumor transplantation. Five rats are in each group at a given drug dose level and a group of 10 rats served as control for all test groups. […] Each acridine is tested at five different doses. The activity of the drug T/C (%) is expressed as % increase in mean survival time (in days) of test group (T) to the mean survival time (in days) of the control (C). Usually, the antitumor activity is presented only for the optimal dose (O.D. mg/kg/day) of tested compounds, at which the highest antitumor activity is observed.

[2] = tested on: TSU cells; test: Antitumor activity on human prostate tumor (TSU) xenografts in nude mice; details: Balb c/nu/nu mice
Experimental: Tumors are induced in six week old Balb c/nu/nu mice which are allowed to acclimate for two weeks by subcutaneous injection of 2×10^6 TSU cells per mouse. TSU cells are human prostate cancer cells (Iizumi et al., 1987, J. Urol. 137:1304-1306). TSU cells are grown in RPMI-1640 medium supplemented with 10% fetal bovine serum and the antibiotics penicillin (50 IU/ml), streptomycin (50 μg/ml) and 2 mM L-glutamine. Cells are fed with fresh media twice a week and are trypsinized using 0.05% trypsin-EDTA. Cells used for injection are always in the log phase of their growth (70-80%) confluent flask and cell viability is checked by trypan-blue exclusion test prior to injection. Only cells >95% […] are used.
Tumors are palpable in the mice by day 7 when treatment with the two drugs, mitoxantrone (0.6 mg/kg) and 9-(2′-hydroxyethylamino)-4-methyl-1-nitroacridine (0.8 mg/kg) is initiated. Treatment is continued twice weekly for three weeks. Mice are lightly anesthetized and tumors are measured and are weighed weekly. The stock concentrations of the drug are 0.12 mg/ml in PBS for mitoxantrone and 0.16 mg/ml in dimethylsulfoxide (DMSO) for 9-(2′-hydroxyethylamino)-4-methyl-1-nitroacridine. Mice are housed 5 animals/cage.

[3] = tested on: Dunning G cells; test: Antitumor activity in Dunning G induced tumors in Copenhagen rats; details: two weeks after treatment withdrawal
Experimental: Four to five week old Copenhagen rats are purchased from Harlan Sprague Dawley, Indianapolis, Ind., and allowed to acclimate for one week, feeding on Purina 5001 rat chow. At the end of one week, the rats are randomized into different experimental groups. Body weights of the animals measured twice a week.
Live Dunning G cells (one million/rat) are injected subcutaneously in all animals to induce tumors. Dunning G cells are non-metastatic tumor producing prostate cancer cells derived from spontaneous tumors from Copenhagen rats. Dunning G and MAT-LyLu cells (Yedavelli et al, 1999, Int. J. Mol. Med. 4:243-248) are grown in RPMI 1640 containing 10% fetal bovine serum (FBS) supplemented with penicillin (50 IU/mL), streptomycin (50 μg/mL), 2 mM L-glutamine and 2.5 mM dexamethasone. Cells are fed twice a week and are trypsinized with 0.05% trypsin-EDTA at 70-80 percent cell confluency.
Animals are injected i.p twice a week with 9-(2′-hydroxyethylamino)-4-methyl-1-nitroacridine (0.8 or 1.0 mg/Kg body weight) 1-nitro-9-hydroxyethylaminoacridine (0.6 mg/Kg body weight) twice a week for three weeks. Injections are started on day 25 for animals injected with Dunning G cells when tumors are palpable (0.5 cm). All animals are housed in hanging cages with three/four animals per cage and had ad libitum access to food and drinking water and are kept on twelve hour diurnal cycle. All injections and tumor measurements are performed under light anesthesia (metofane inhalation). Experimental end point measurements include body weight, tumor incidence. The experiment is terminated when the tumor size in the control animals is 3 cms diameter. Sacrifice of the animals is done by carbon dioxide asphyxiation.
Stock solution of 9-(2′-hydroxyethylamino)-4-methyl-1-nitroacridine is made in dimethylsulfoxide at 0.16 mg/ml. All drugs for injection in animals are diluted in PBS such that the total volume injected is between 0.1 to 0.2 mL. Stock solution of 1-nitro-9-hydroxyethylaminoacridine is made in dimethylsulfoxide at 0.12 mg/ml.

Compound | Optimal dose [1] | Antitumor activity against Walker256 (Survival) Test/Control [1] | further results
COc1ccc([N+](=O)[O-])c2c(NCCCCO)c3ccccc3nc12 [9-(4′-hydroxybutylamino)-4-methoxy-1-nitroacridine] | 32 mg/kg | 200% | 
CCC(=O)OCCNc1c2ccccc2nc2cccc([N+](=O)[O-])c12 [9-(2′-propionoxyethylamino)-1-nitroacridine] | 1 mg/kg | 200% | 
CCC(=O)OC(C)CNc1c2ccccc2nc2c(C)ccc([N+](=O)[O-])c12 (stereo not drawn) [9-(2′-propionoxypropylamino)-4-methyl-1-nitroacridine] | 8 mg/kg | 257% | 
CC(=O)OCCNc1c2ccccc2nc2c(C)ccc([N+](=O)[O-])c12 [9-(2′-acetoxyethylamino)-4-methyl-1-nitroacridine] | 8 mg/kg | 233% | 
O=C1c2c(O)ccc(O)c2C(=O)c2c(NCCNCCO)ccc(NCCNCCO)c21 [mitoxantrone, reference compound] |  |  | effect on tumors (FIG. 2) ([2]; 0.6 mg/kg twice weekly for three weeks from day 7): showed a reduction till three weeks and the tumors started growing eight weeks after withdrawal of therapy
COc1ccc2nc3c(C)ccc([N+](=O)[O-])c3c(NCCO)c2c1 [9-(2′-hydroxyethylamino)-7-methoxy-4-methyl-1-nitroacridine] | 16 mg/kg | 233% | 
CCC(=O)OCCNc1c2ccccc2nc2c(C)ccc([N+](=O)[O-])c12 [9-(2′-propionoxyethylamino)-4-methyl-1-nitroacridine] | 8 mg/kg | 214% | 
COc1ccc2nc3c(C)ccc([N+](=O)[O-])c3c(NCCCOC(C)=O)c2c1 [9-(3′-acetoxypropylamino)-7-methoxy-4-methyl-1-nitroacridine] | 16 mg/kg | 217% | 
COc1ccc2nc3cccc([N+](=O)[O-])c3c(NCCCCO)c2c1 [9-(4′-hydroxybutylamino)-7-methoxy-1-nitroacridine] | 2 mg/kg | 157% | 
COc1ccc2nc3cccc([N+](=O)[O-])c3c(NCCO)c2c1 [9-(2′-hydroxyethylamino)-7-methoxy-1-nitroacridine] | 2 mg/kg | 150% and 200% | 
9-(4′-hydroxypropylamino)-7-methoxy-4-methyl-1-nitroacridine | 8 mg/kg | 183% | 
COc1ccc([N+](=O)[O-])c2c(NCCO)c3ccccc3nc12 [9-(2′-hydroxyethylamino)-4-methoxy-1-nitroacridine] | 16 mg/kg | 200% | 
CCCCOCCNc1c2ccccc2nc2c(C)ccc([N+](=O)[O-])c12 [9-(2′-butyloxyethylamino)-4-methyl-1-nitroacridine] | 8 mg/kg | 217% | 
Cc1ccc([N+](=O)[O-])c2c(NCCO)c3ccccc3nc12 [9-(2′-hydroxyethylamino)-4-methyl-1-nitroacridine] | 4 mg/kg | 217% | effect on tumors (FIG. 2) ([2]; 0.8 mg/kg twice weekly for three weeks from day 7, observation up to 11 weeks): reduction of the tumors until completely tumor free by five weeks and remained in force until 11 weeks; reduction of tumors ([3]; 0.8 mg/kg i.p. twice a week for three weeks): 65%; reduction of tumors ([3]; 1.0 mg/kg i.p. twice a week for three weeks): 75%
COc1ccc2nc3cccc([N+](=O)[O-])c3c(NCCCO)c2c1 [9-(3′-hydroxypropylamino)-7-methoxy-1-nitroacridine] | 0.5 mg/kg | 182% and 229% | 
COc1ccc([N+](=O)[O-])c2c(NCCCO)c3ccccc3nc12 [9-(3′-hydroxypropylamino)-4-methoxy-1-nitroacridine] | 2 mg/kg | 157% | 
COc1ccc2nc3c(C)ccc([N+](=O)[O-])c3c(NCCCO)c2c1 [9-(3′-hydroxypropylamino)-7-methoxy-4-methyl-1-nitroacridine] | 16 mg/kg | 183% | 
CC(=O)OCCNc1c2ccccc2nc2cccc([N+](=O)[O-])c12 [9-(2′-acetoxyethylamino)-1-nitroacridine] | 1 mg/kg | 167% | 
O=[N+]([O-])c1cccc2nc3ccccc3c(NCCO)c12 [1-nitro-9-hydroxyethylaminoacridine, reference compound] |  |  | reduction of tumors ([3]; 0.6 mg/Kg body weight i.p. twice a week for three weeks (FIG. 1 legend says 0.8 mg/Kg)): 50%
CC(=O)OCCCNc1c2ccccc2nc2c(C)ccc([N+](=O)[O-])c12 [9-(3′-acetoxypropylamino)-4-methyl-1-nitroacridine] | 8 mg/kg | 157% | 
COc1ccc2nc3c(C)ccc([N+](=O)[O-])c3c(NCCOC(C)=O)c2c1 [9-(2′-acetoxyethylamino)-7-methoxy-4-methyl-1-nitroacridine] | 25 mg/kg | 133% | 
Cc1ccc([N+](=O)[O-])c2c(NCCCO)c3ccccc3nc12 [9-(3′-hydroxypropylamino)-4-methyl-1-nitroacridine] | 2 mg/kg | 233% | 
